Where two headings read alike, the source gives them in different places.
Tests used:
[1] = log P by HPLC on reversed-phase C18 columns (OECD Guideline 117); method [a] acidic pH 2.7, method [b] neutral pH 7.8; assay type: physicochemical; details: for chromatographic logP: reversed-phase C18 HPLC column
Myzus persicae = Myzus persicae - spray test (Chinese cabbage leaf discs); assay type: in vivo; details: application rate 500 g/ha, after 6 days; for pest or weed control at 500 g/ha: Myzus persicae, foliar, 144 h, read-out: efficacy (aphids killed)
Description: Myzus persicae—Spray Test
Solvent: 78 parts by weight of acetone • • 1.5 parts by weight of dimethylformamide
Emulsifier: alkylaryl polyglycol ether
To produce further test concentrations, the preparation is diluted with emulsifier-containing water.
After 6 days, the efficacy in % is determined 100% means that all the aphids have been killed; 0% means that none of the aphids have been killed.

[2] = HPLC reversed-phase C18, method [a] acidic pH 2.7, read-out: logP[a]
[3] = HPLC reversed-phase C18, method [b] neutral pH 7.8, read-out: logP[b]
[4] = HPLC reversed-phase C18, method [b] neutral pH 7.8
[5] = HPLC reversed-phase C18, method [a] acidic pH 2.7

| chromatographic logP [1, 2] | chromatographic logP [1, 3] | Compound | pest or weed control at 500 g/ha (Myzus persicae) | logP[b] [1, 4] | efficacy (aphids killed) (Myzus persicae) | logP[a] [1, 5] |
| --- | --- | --- | --- | --- | --- | --- |
| 1.35 | 1.43 | CC(C)n1cnc2nc(-c3cccnc3)sc2c1=O [Compound 1, 6-Isopropyl-2-(pyridin-3-yl)[1,3]thiazolo[4,5-d]pyrimidin-7(6H)-one] | 100% | – | – | – |
| – | – | O=c1c2sc(-c3cccnc3)nc2ncn1C1CC1 [Compound 2] | – | 1.05 | 100% | – |
| 1.7 | – | CC(C)Cn1cnc2nc(-c3cccnc3)sc2c1=O [Compound 3, 6-Isobutyl-2-(pyridin-3-yl)[1,3]thiazolo[4,5-d]pyrimidin-7(6H)-one] | 100% | – | – | – |
| – | – | O=c1c2sc(-c3cccnc3)nc2ncn1CC(F)F [Compound 4] | – | – | 100% | 1.19 |
| 1.54 | – | O=c1c2sc(-c3cccnc3)nc2ncn1CC(F)(F)F [Compound 5, 2-(Pyridin-3-yl)-6-(2,2,2-trifluoroethyl)[1,3]thiazolo[4,5-d]pyrimidin-7(6H)-one] | 100% | – | – | – |
| – | – | O=c1c2sc(-c3cccnc3)nc2ncn1CC(F)(F)C(F)F [Compound 6] | – | – | 90% | 1.57 |
| – | – | CN(C)C(=O)Cn1cnc2nc(-c3cccnc3)sc2c1=O [Compound 7] | – | – | 100% | 0.65 |
| – | – | Cc1cccc(-n2cnc3nc(-c4cccnc4)sc3c2=O)c1 [Compound 8] | – | 1.94 | 90% | 1.94 |
| – | – | O=c1c2sc(-c3cccnc3)nc2ncn1-c1cccc(C(F)(F)F)c1 [Compound 9] | – | 2.23 | 100% | 2.26 |
| – | – | COc1ccc(-n2cnc3nc(-c4cccnc4)sc3c2=O)cc1 [Compound 12] | – | 1.76 | 90% | 1.73 |
| – | – | CSc1cccc(-n2cnc3nc(-c4cccnc4)sc3c2=O)c1 [Compound 13] | – | 2.08 | 90% | 2.09 |
| 2.47 | 2.43 | O=c1c2sc(-c3cccnc3)nc2ncn1Cc1cccc(C(F)(F)F)c1 [Compound 28, 2-(Pyridin-3-yl)-6-[3-(trifluoromethyl)benzyl][1,3]thiazolo[4,5-d]pyrimidin-7(6H)-one] | – | – | – | – |
| – | – | COc1cccc(Cn2cnc3nc(-c4cccnc4)sc3c2=O)c1 [Compound 32] | – | 1.92 | – | 1.91 |
| 1.36 | 1.42 | Cc1nc(Cn2cnc3nc(-c4cccnc4)sc3c2=O)cs1 [Compound 38, 6-[(2-Methyl-1,3-thiazol-4-yl)methyl]-2-(pyridin-3-yl)[1,3]thiazolo[4,5-d]pyrimidin-7(6H)-one] | – | – | – | – |
| 1.63 | 1.72 | CN(C)S(=O)(=O)c1cccc(-n2cnc3nc(-c4cccnc4)sc3c2=O)c1 [Compound 42, N,N-Dimethyl-3-[7-oxo-2-(pyridin-3-yl)[1,3]thiazolo[4,5-d]pyrimidin-6(7H)-yl]benzenesulphonamide] | – | – | – | – |
| – | – | CN(C)C(=O)c1cc2cc(-n3cnc4nc(-c5cccnc5)sc4c3=O)ccc2s1 [Compound 65] | – | 1.70 | – | 1.70 |
| 2.34 | 2.29 | O=c1c2sc(-c3cccnc3)nc2ncn1-c1ccccc1SCC(F)(F)F [Compound 68, 2-(Pyridin-3-yl)-6-{2-[(2,2,2-trifluoroethyl)sulphanyl]phenyl}[1,3]thiazolo[4,5-d]pyrimidin-7(6H)-one] | – | – | – | – |
| 1.74 | 1.75 | O=c1c2sc(-c3cccnc3)nc2ncn1-c1ccccc1[S+]([O-])CC(F)(F)F (stereo not shown) [Compound 69, 2-(Pyridin-3-yl)-6-{2-[(2,2,2-trifluoroethyl)sulphinyl]phenyl}[1,3]thiazolo[4,5-d]pyrimidin-7(6H)-one] | – | – | – | – |
| – | – | Cc1ccc(-n2cnc3nc(-c4cncnc4)sc3c2=O)cc1 [Compound 75] | – | 1.72 | – | 1.80 |

From patent US10294243B2, “Bicyclic compounds as pesticides” (BAYER CROPSCIENCE AKTIENGESELLSCHAFT, priority 2014, dated 2019)
